ChEMBL document CHEMBL4177725, “Design and synthesis of novel pyrimidine analogs as highly selective, non-covalent BTK inhibitors” (Bioorg Med Chem Lett, 2018)
In brackets after ≈: the same amount, converted by molar mass. One block for each compound: values may come before it. Activity calls are given as the source filed them. The rule behind the calls is not given here.

Legend:
[1] = target: T1, Tyrosine-protein kinase BTK (Homo sapiens, UniProt Q06187); assay: Inhibition of His-tagged lambda phosphatase pre-treated N-terminal DYKDDDDK tagged and biotinylated BTK unactivated form (unknown origin) using FITC-labeled Srctide substrate and ATP by microfluidic mobility shift assay
[2] = target: T1, Tyrosine-protein kinase BTK; assay: Inhibition of N-terminal DYKDDDDK tagged and biotinylated BTK activated form (unknown origin) using FITC-labeled Srctide substrate and ATP by microfluidic mobility shift assay
[3] = target: T1, Tyrosine-protein kinase BTK; assay: Inhibition of BTK (unknown origin) using FITC-labeled Srctide substrate and ATP by microfluidic mobility shift assay
[4] = target: Tyrosine-protein kinase SYK (Homo sapiens, UniProt P43405); assay: Inhibition of SYK (unknown origin) using FITC-labeled Blk/Lyntide substrate and ATP by microfluidic mobility shift assay
[5] = Stability in human microsomes; assay type: ADME, Microsome
[6] = Stability in mouse microsomes; assay type: ADME, Microsome
[7] = Apparent permeability in human Caco2 cells; assay type: ADME, cell-based; settings: Caco-2
[8] = AUC (0 to infinity) in ICR mouse at 10 mg/kg, po; assay type: ADME, organism-based; set-up: dose 10 mg/kg, time infinity, route oral; settings: in vivo
[9] = Tmax in ICR mouse at 10 mg/kg, po; assay type: ADME, organism-based; settings: in vivo
[10] = Apparent volume of distribution in ICR mouse at 2 mg/kg, iv; assay type: ADME, organism-based; settings: in vivo, read-out: Vz
[11] = MRT (0 to infinity) in ICR mouse at 2 mg/kg, iv; assay type: ADME, organism-based; settings: in vivo
[12] = Half life in ICR mouse at 10 mg/kg, po; assay type: ADME, organism-based; settings: in vivo
[13] = Cmax in ICR mouse at 2 mg/kg, iv; assay type: ADME, organism-based; set-up: dose 2 mg/kg, route intravenous; settings: in vivo
[14] = AUC (0 to t) in ICR mouse at 2 mg/kg, iv; assay type: ADME, organism-based; settings: in vivo
[15] = Cmax in ICR mouse at 10 mg/kg, po; assay type: ADME, organism-based; set-up: dose 10 mg/kg, route oral; settings: in vivo
[16] = Oral bioavailability in ICR mouse at 10 mg/kg; assay type: ADME, organism-based; settings: in vivo
[17] = target: T1, Tyrosine-protein kinase BTK; assay: Inhibition of anti-IgM antibody stimulated BTK Tyr223 autophosphorylation in human Ramos cells at 30 nM pre-incubated for 1 hr followed by anti-IgM stimulation for 10 mins by Western blotting; assay type: cell-based
[18] = MRT (0 to infinity) in ICR mouse at 10 mg/kg, po; assay type: ADME, organism-based; settings: in vivo
[19] = Half life in ICR mouse at 2 mg/kg, iv; assay type: ADME, organism-based; settings: in vivo
[20] = AUC (0 to infinity) in ICR mouse at 2 mg/kg, iv; assay type: ADME, organism-based; set-up: dose 2 mg/kg, route intravenous, time infinity; settings: in vivo
[21] = Clearance in ICR mouse at 2 mg/kg, iv; assay type: ADME, organism-based; settings: in vivo
[22] = Tmax in ICR mouse at 2 mg/kg, iv; assay type: ADME, organism-based; settings: in vivo
[23] = Kinetic solubility in phosphate buffer at pH 7.4 incubated for 1 hr at room temperature by LC-UV or LC-MS/MS method; assay type: physicochemical; settings: read-out: Kinetic_solubility
[24] = AUC (0 to t) in ICR mouse at 10 mg/kg, po; assay type: ADME, organism-based; settings: in vivo
[25] = target: Voltage-gated inwardly rectifying potassium channel KCNH2 (Homo sapiens, UniProt Q12809); assay: Inhibition of human ERG
Mus musculus = assay: Inhibition of passive cutaneous anaphylaxis reaction in anti-DNP IgE sensitized mouse model of passive cutaneous anaphylaxis at 30 mg/kg, po dosed 46 hrs before DNP-BSA/dye mixture injection and measured after 30 mins; assay type: functional
[26] = target: T2, Tyrosine-protein kinase Tec (Homo sapiens) (UniProt P42680); assay: Inhibition of N-terminal GST-fused human TEC catalytic domain (359 to 631 amino acids) at 0.3 uM
T2 sequence (whole entry): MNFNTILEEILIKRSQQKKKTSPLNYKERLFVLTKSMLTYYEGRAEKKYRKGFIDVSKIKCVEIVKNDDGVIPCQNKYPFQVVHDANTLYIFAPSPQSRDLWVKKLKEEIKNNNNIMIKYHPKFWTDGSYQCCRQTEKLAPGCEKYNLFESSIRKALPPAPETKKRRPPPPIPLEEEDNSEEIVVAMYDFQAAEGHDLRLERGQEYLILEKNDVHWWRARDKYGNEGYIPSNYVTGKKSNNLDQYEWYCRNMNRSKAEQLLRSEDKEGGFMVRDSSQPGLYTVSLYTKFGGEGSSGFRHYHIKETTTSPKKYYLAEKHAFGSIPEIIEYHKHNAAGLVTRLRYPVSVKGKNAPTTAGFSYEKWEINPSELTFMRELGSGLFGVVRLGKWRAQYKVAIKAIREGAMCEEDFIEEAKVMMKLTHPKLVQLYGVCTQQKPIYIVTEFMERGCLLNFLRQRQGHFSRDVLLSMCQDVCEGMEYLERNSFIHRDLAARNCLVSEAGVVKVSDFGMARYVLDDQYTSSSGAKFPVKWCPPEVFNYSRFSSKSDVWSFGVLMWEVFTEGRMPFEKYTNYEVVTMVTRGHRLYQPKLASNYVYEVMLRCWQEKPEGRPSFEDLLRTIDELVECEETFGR

[27] = target: T3, Cytoplasmic tyrosine-protein kinase BMX (Homo sapiens) (UniProt P51813); assay: Inhibition of N-terminal GST-fused human full length BMX at 0.3 uM
T3 sequence (whole entry): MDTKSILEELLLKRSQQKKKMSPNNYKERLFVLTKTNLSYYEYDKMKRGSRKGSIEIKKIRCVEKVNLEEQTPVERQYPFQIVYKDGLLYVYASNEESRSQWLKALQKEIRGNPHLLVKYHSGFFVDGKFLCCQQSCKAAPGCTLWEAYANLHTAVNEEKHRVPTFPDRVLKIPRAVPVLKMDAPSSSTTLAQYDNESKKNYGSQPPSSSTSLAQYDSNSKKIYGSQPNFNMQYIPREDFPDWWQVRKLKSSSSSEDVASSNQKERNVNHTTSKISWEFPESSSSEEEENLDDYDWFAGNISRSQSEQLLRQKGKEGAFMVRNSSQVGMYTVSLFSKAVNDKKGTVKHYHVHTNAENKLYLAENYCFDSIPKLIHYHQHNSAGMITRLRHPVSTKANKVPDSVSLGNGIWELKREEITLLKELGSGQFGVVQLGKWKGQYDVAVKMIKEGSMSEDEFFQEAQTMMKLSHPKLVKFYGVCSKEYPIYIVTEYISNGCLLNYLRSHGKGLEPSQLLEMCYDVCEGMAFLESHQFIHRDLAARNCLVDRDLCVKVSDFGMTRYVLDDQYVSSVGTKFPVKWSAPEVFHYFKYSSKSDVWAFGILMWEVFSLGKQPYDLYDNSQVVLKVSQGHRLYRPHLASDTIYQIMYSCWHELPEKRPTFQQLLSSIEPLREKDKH

T1 sequence (Q06187 whole entry): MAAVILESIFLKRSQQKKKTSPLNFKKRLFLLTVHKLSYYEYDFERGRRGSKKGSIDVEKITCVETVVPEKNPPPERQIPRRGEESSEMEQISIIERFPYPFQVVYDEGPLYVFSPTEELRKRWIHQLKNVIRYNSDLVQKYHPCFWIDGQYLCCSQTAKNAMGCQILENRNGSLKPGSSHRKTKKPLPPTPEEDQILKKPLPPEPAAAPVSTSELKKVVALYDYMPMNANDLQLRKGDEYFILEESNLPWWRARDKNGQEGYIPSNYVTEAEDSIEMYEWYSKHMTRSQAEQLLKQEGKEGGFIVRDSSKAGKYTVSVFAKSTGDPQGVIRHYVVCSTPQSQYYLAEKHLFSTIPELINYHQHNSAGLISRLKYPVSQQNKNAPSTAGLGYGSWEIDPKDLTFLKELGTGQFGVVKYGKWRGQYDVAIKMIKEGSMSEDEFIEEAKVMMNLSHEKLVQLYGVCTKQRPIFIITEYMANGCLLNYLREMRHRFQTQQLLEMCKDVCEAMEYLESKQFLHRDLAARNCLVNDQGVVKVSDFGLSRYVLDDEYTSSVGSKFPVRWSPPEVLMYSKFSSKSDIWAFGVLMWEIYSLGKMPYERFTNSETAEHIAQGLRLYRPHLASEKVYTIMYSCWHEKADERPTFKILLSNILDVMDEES
Voltage-gated inwardly rectifying potassium channel KCNH2, sequence (Q12809 whole entry): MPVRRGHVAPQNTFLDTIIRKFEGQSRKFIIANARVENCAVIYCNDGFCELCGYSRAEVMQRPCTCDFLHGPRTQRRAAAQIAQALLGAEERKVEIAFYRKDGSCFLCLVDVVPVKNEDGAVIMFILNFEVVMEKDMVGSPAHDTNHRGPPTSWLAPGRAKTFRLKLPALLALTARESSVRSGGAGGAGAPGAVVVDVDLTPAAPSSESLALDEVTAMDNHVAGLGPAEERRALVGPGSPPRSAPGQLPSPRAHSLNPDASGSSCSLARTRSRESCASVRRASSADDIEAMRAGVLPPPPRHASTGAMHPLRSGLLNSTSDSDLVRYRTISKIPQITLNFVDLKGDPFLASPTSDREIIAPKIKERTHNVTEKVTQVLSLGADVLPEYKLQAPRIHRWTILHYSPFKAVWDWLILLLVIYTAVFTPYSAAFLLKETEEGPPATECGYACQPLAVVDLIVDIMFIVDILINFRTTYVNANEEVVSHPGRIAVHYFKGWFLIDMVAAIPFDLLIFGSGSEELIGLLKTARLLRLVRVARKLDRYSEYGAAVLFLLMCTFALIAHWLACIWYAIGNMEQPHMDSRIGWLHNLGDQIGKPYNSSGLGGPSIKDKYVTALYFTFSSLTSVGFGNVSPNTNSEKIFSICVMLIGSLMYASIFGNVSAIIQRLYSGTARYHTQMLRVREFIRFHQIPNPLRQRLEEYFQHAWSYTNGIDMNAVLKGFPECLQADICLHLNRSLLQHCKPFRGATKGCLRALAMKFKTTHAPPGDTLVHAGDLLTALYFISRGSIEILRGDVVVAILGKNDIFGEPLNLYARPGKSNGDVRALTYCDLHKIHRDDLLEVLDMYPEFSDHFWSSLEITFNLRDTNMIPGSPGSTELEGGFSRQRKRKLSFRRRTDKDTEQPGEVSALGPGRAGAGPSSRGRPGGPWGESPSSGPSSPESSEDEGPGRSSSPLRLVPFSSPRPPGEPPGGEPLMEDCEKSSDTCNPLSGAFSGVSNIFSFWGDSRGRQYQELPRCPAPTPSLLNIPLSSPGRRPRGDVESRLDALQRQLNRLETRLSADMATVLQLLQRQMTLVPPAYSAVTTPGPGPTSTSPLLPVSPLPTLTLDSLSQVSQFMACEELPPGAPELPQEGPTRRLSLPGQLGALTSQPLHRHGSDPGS

SMILES: Nc1cc(-c2cccc(-n3ccc4cc(C5CC5)cc(F)c4c3=O)c2CO)nc(Nc2ccc(N3CCOCC3)cc2)n1
IC50 [1]: 0.6 nM
IC50 [2]: 12.9 nM

SMILES: Cn1ccc(Nc2nc(N)cc(-c3cccc(-n4ccc5cc(C6CC6)cc(F)c5c4=O)c3CO)n2)n1
IC50 [1]: 13.9 nM
IC50 [2]: 245 nM

SMILES: CCn1cc(Nc2nc(N)cc(-c3cccc(-n4ccc5cc(C6CC6)cc(F)c5c4=O)c3CO)n2)cn1
IC50 [1]: 0.4 nM
Papp [7]: 5.4 ×10⁻⁶ cm/s
IC50 [2]: 10 nM

SMILES: Cn1cc(Nc2nc(N)cc(-c3cccc(-n4ccc5cc(C6CC6)cc(F)c5c4=O)c3CO)n2)cn1
AUC(0-inf) [8]: 12800 ng·h/mL
Tmax [9]: 30 min
Vd [10]: 0.93 L/kg
MRT inf [11]: 1.13 h
half-life [12]: 57.6 min
Cmax [13]: 2950 ng/mL
AUC(0-t) [14]: 3460 ng·h/mL
Cmax [15]: 4540 ng/mL
IC50 [1]: 0.4 nM
bioavailability [16]: 73.7%
inhibition [17]: Active
MRT inf [18]: 1.91 h
half-life [19]: 67.2 min
AUC(0-inf) [20]: 3480 ng·h/mL
clearance [21]: 9.67 mL/min/kg
Papp [7]: 6.3 ×10⁻⁶ cm/s
Tmax [22]: 4.98 min
solubility kinetic at 1 h [23]: 18 µM (≈ 8.96 µg/mL)
IC50 [2]: 3.7 nM
AUC(0-t) [24]: 12700 ng·h/mL

SMILES: CC(=O)c1cc(Nc2nc(N)cc(-c3cccc(-n4ccc5cc(C6CC6)cc(F)c5c4=O)c3CO)n2)cn1C
IC50 [2]: 5.9 nM

SMILES: Cn1cc(Nc2nc(N)cc(-c3cccc(-n4ccc5cc(C6CC6)cc(F)c5c4=O)c3CO)n2)cc1C#N
IC50 [2]: 20.2 nM

SMILES: CC(C)n1cc(Nc2nc(N)cc(-c3cccc(-n4ccc5cc(C6CC6)cc(F)c5c4=O)c3CO)n2)cn1
IC50 [1]: 0.2 nM
Papp [7]: 3.7 ×10⁻⁶ cm/s
solubility kinetic at 1 h [23]: 4 µM (≈ 2.1 µg/mL)
IC50 [2]: 2.6 nM

SMILES: Nc1cc(-c2cccc(-n3ccc4cc(C5CC5)cc(F)c4c3=O)c2CO)nc(Nc2ccc(CN3CCOCC3)cc2)n1
IC50 [1]: 309 nM
IC50 [2]: > 10000 nM

SMILES: Nc1cc(-c2cccc(-n3ccc4cc(C5CC5)cc(F)c4c3=O)c2CO)nc(Nc2cnn(CC3CC3)c2)n1
Papp [7]: 6.1 ×10⁻⁶ cm/s
solubility kinetic at 1 h [23]: 6.3 µM (≈ 3.39 µg/mL)
IC50 [2]: 3.4 nM

SMILES: Nc1cc(-c2cccc(-n3ccc4cc(C5CC5)cc(F)c4c3=O)c2CO)nc(Nc2cnn(CC(F)F)c2)n1
IC50 [1]: 0.2 nM
Papp [7]: 3.1 ×10⁻⁶ cm/s
solubility kinetic at 1 h [23]: 2.1 µM (≈ 1.15 µg/mL)
IC50 [2]: 3.3 nM

SMILES: Nc1cc(-c2cccc(-n3ccc4cc(C5CC5)cc(F)c4c3=O)c2CO)nc(Nc2cnn(C3(CO)CC3)c2)n1
IC50 [1]: 0.6 nM
Papp [7]: 0.7 ×10⁻⁶ cm/s
IC50 [2]: 12 nM

SMILES: Nc1cc(-c2cccc(-n3ccc4cc(C5CC5)cc(F)c4c3=O)c2CO)nc(Nc2cnn(C3CC3)c2)n1
AUC(0-inf) [8]: 19100 ng·h/mL
Tmax [9]: 60 min
Vd [10]: 1 L/kg
inhibition (INH) [25]: Active
MRT inf [11]: 1.36 h
half-life [12]: 78.6 min
Cmax [13]: 2260 ng/mL
AUC(0-t) [14]: 3150 ng·h/mL
Cmax [15]: 5940 ng/mL
bioavailability [16]: 120%
inhibition [17]: Active
MRT inf [18]: 2.24 h
half-life [19]: 65.4 min
inhibition in vivo at 30 mg/kg (Mus musculus): 46%
AUC(0-inf) [20]: 3170 ng·h/mL
clearance [21]: 10.5 mL/min/kg
Papp [7]: 6.9 ×10⁻⁶ cm/s
inhibition [26]: 92%
Tmax [22]: 4.98 min
solubility kinetic at 1 h [23]: 9.8 µM (≈ 5.13 µg/mL)
inhibition [27]: 70%
IC50 [2]: 2.8 nM
AUC(0-t) [24]: 18700 ng·h/mL

SMILES: Nc1cc(-c2cccc(-n3ccc4cc(C5CC5)cc(F)c4c3=O)c2CO)nc(Nc2cn[nH]c2)n1
IC50 [2]: 8.1 nM

SMILES: Cn1ccc(Nc2nc(N)cc(-c3cccc(-n4ccc5cc(C6CC6)cc(F)c5c4=O)c3CO)n2)c1
IC50 [1]: 17 nM
IC50 [2]: 62 nM

SMILES: CN1CCN(c2ccc(Nc3nc(N)cc(-c4cccc(-n5ccc6cc(C7CC7)cc(F)c6c5=O)c4CO)n3)cc2)CC1
IC50 [2]: 5.3 nM

Continued, values first:

IC50 [3]: 40 nM
IC50 [4]: > 10 µM
Stability [5]: Unstable
Stability [6]: Unstable
SMILES: Cc1c(NC(=O)c2ccc(C(C)(C)C)cc2)cccc1-c1ccnc(Nc2ccc3[nH]ncc3c2)n1

IC50 [1]: 2.5 nM
IC50 [2]: 39 nM
SMILES: COc1ccc(Nc2nc(N)cc(-c3cccc(-n4ccc5cc(C6CC6)cc(F)c5c4=O)c3CO)n2)cc1

IC50 [3]: 52 nM
IC50 [4]: > 10 µM
Stability [5]: Unstable
Stability [6]: Unstable
SMILES: CC(C)(C)c1ccc(C(=O)Nc2cccc(-c3ccnc(Nc4ccc5cc[nH]c5c4)n3)c2)cc1

IC50 [3]: 6.1 nM
IC50 [4]: > 10 µM
Stability [5]: Unstable
Stability [6]: Unstable
SMILES: COc1cc(Nc2nccc(-c3cccc(NC(=O)c4ccc(C(C)(C)C)cc4)c3C)n2)cc(OC)c1OC

IC50 [3]: 7300 nM
IC50 [4]: 0.36 µM
SMILES: CC(C)(C)c1ccc(C(=O)Nc2cccc(-c3ccnc(Nc4ccc5cn[nH]c5c4)n3)c2)cc1

IC50 [1]: 0.6 nM
Papp [7]: 5.7 ×10⁻⁶ cm/s
IC50 [2]: 11 nM
SMILES: CC(C)(C)n1cc(Nc2nc(N)cc(-c3cccc(-n4ccc5cc(C6CC6)cc(F)c5c4=O)c3CO)n2)cn1

IC50 [3]: 440 to 450 nM
IC50 [4]: > 10 µM
Stability [5]: Unstable
Stability [6]: Unstable
SMILES: Cc1c(NC(=O)c2ccc(C(C)(C)C)cc2)cccc1-c1ccnc(Nc2ccc3cn[nH]c3c2)n1

IC50 [4]: > 10 µM
Stability [5]: Unstable
Stability [6]: Unstable
SMILES: Cc1c(NC(=O)c2ccc(C(C)(C)C)cc2)cccc1-c1ccnc(Nc2ccc(C(=O)N3CCOCC3)cc2)n1
